Assay results as given in patent publication US20200291018A1, “TAM KINASE INHIBITORS” (SYROS PHARMACEUTICALS, INC., priority 2017, published 2020).
Where a name gives a salt, the structure may show the parent alone.

How the values were obtained:
FLT3 = target: T1, FLT3 (Homo sapiens, UniProt P36888); assay: TR-FRET kinase activity assay, FLT3; format: biochemical; conditions: ATP at Km, 60 minutes
T1 sequence (P36888 27-993): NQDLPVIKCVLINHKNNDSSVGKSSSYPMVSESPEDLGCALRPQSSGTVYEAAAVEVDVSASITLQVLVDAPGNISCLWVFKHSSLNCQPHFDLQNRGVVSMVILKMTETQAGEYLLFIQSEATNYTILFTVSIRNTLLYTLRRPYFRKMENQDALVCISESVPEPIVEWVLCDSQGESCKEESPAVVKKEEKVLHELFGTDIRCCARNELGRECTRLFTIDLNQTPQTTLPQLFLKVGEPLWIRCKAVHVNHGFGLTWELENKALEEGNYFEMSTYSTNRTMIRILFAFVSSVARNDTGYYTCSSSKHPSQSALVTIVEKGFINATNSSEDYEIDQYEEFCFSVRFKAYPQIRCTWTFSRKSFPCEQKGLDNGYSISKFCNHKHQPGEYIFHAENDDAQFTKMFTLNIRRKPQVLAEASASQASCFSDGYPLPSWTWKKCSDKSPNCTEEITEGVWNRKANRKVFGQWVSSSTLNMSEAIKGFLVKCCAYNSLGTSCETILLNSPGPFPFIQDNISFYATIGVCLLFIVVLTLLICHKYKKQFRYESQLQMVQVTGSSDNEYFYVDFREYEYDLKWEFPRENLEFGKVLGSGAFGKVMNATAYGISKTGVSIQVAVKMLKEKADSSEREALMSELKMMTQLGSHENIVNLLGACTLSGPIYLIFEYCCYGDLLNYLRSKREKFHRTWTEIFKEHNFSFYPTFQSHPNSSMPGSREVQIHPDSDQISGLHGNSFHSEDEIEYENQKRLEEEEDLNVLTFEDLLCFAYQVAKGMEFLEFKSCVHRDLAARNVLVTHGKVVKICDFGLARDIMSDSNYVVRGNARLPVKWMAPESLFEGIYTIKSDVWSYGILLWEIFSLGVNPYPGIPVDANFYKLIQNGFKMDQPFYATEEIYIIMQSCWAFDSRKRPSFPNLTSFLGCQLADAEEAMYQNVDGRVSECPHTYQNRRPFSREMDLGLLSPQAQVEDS
Method: (§1) IC50 values for compound inhibition of AXL, FLT3, MERTK and TYRO3 activity were determined using a TR-FRET activity assay. A peptide substrate with a fluorescent label is phosphorylated on a tyrosine by each enzyme, where the now phosphorylated product is bound by a Europium-labeled antibody specific to that phosphorylation site. The proximity between the antibody and the substrate gives a signal known as TR-FRET. As the enzyme is inhibited by compound, less phosphorylated peptide product is made, causing a decrease in overall signal.
(§2) Activity assays were performed in a 384-well, small volume, black microplates in an active enzyme volume of 10 uL and final developed volume of 20 uL. Final assay conditions are 50 mM HEPES pH 7.5, 10 mM MgCl2, 1 mM EGTA, 0.01% Brij 35 and 1 mM DTT, all at RT. Enzyme, substrate-labeled peptide and compound are mixed, and then the reaction is initiated with the addition of ATP at Km concentration for each enzyme. The reaction is allowed to run 60 minutes and then quenched with a 12.5 mM EDTA (ethylenediamine tetraacetic acid) solution. The plate is then developed with the addition of Europium-labeled antibody for a final volume of 20 uL and is then incubated for 30 minutes in darkness. Plates are read in a PHERASTAR® plate reader. Data are analyzed in GraphPad PRISM.

MERTK = target: T2, MERTK (Homo sapiens, UniProt Q12866); assay: TR-FRET kinase activity assay, MERTK; format: biochemical; conditions: for IC50: TR-FRET activity assay, ATP at Km, 60 minutes, read-out: Mer IC50; for Mer/Flt3 ratio (FLT3 IC50/Mer IC50): ratio calculated as FLT3 IC50/Mer IC50
T2 sequence (Q12866 21-999): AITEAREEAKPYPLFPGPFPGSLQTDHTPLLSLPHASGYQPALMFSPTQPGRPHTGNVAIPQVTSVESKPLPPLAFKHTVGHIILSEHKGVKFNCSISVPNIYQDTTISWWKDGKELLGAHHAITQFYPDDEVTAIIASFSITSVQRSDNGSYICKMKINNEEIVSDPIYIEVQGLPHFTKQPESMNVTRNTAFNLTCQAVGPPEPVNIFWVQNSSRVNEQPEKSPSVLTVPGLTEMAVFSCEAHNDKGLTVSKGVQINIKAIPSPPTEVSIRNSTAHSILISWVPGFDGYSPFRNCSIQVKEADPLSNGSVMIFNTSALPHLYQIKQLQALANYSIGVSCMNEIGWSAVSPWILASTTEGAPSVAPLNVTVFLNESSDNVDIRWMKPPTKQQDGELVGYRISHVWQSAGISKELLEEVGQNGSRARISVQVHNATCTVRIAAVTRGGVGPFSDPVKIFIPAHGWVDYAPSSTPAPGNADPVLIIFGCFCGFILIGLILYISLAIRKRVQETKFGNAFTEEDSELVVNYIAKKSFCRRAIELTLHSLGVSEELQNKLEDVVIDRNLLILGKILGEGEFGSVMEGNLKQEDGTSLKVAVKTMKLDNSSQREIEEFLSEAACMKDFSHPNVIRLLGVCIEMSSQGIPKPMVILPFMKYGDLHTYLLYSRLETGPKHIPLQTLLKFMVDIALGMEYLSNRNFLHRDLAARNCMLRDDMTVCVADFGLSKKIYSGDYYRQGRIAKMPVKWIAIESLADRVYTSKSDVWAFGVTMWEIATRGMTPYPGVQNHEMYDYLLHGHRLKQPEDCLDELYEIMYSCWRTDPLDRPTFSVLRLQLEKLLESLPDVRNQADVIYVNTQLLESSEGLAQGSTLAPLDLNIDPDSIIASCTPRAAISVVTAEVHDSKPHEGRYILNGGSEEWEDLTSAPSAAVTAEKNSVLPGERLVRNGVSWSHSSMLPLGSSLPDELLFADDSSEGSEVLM
Method: as §1, §2

Row | IC50 (FLT3) | IC50 (MERTK) | Mer/Flt3 ratio (FLT3 IC50/Mer IC50) (MERTK) | Structure (SMILES)
1 | ≤ 0.1 µM | ≤ 0.1 µM | ++ (a ratio of between 10 and 100) | CCCCNc1cc2c(cn1)c(OC1CCNCC1)ncc2[C@H]1CC[C@H](O)CC1 [Compound 107]
2 | 1 to 10 µM | ≤ 0.1 µM | +++ (a ratio of >100) | CCCCC[C@H](C)Nc1ncc2c(=O)n(C3CCOCC3)cc([C@H]3CC[C@H](O)CC3)c2n1 [Compound 108]
3 | 0.1 to 1 µM | ≤ 0.1 µM | ++ (a ratio of between 10 and 100) | CCCCNc1cc2c(cn1)c(=O)n(C1CCNCC1)cc2[C@H]1CC[C@H](O)CC1 [Compound 109, 6-(butylamino)-4-((1r,4r)-4-hydroxycyclohexyl)-2-(piperidin-4-yl)-2,7-naphthyridin-1(2H)-one hydrochloride]
4 | 1 to 10 µM | ≤ 0.1 µM | +++ (a ratio of >100) | CC[C@@H](C)Nc1ncc2c(OC3CCN(C)CC3)ncc([C@H]3CC[C@H](O)CC3)c2n1 [Compound 195]
5 | 1 to 10 µM | ≤ 0.1 µM | +++ (a ratio of >100) | CCC[C@@H](C)Nc1ncc2c(OC3CCNCC3)ncc([C@H]3CC[C@H](O)CC3)c2n1 [Compound 196]
6 | 0.1 to 1 µM | ≤ 0.1 µM | ++ (a ratio of between 10 and 100) | Cc1cccc(Nc2ncc3c(OC4CCNCC4)ncc([C@H]4CC[C@H](O)CC4)c3n2)c1 [Compound 197]
7 | 0.1 to 1 µM | 0.1 to 1 µM | + (a ratio of >2.0 and <10) | Cc1cc(Cl)ccc1Nc1ncc2c(OC3CCNCC3)ncc([C@H]3CC[C@H](O)CC3)c2n1 [Compound 198]
8 | 1 to 10 µM | ≤ 0.1 µM | +++ (a ratio of >100) | CCCC(C)Nc1ncc2c(=O)n([C@H]3CCN(C)C[C@@H]3F)cc([C@H]3CC[C@H](O)CC3)c2n1 (stereo partly drawn) [Compound 199]
9 | 1 to 10 µM | ≤ 0.1 µM | +++ (a ratio of >100) | CCCC(C)Nc1ncc2c(=O)n([C@@H]3CCCN(C)C3)cc([C@H]3CC[C@H](O)CC3)c2n1 (stereo partly drawn) [Compound 200]
10 | 1 to 10 µM | 0.1 to 1 µM | +++ (a ratio of >100) | CCCC(C)Nc1ncc2c(=O)n(C3CCN(C4COC4)CC3)cc([C@H]3CC[C@H](O)CC3)c2n1 (stereo partly drawn) [Compound 201]
11 | 1 to 10 µM | 0.1 to 1 µM | ++ (a ratio of between 10 and 100) | CC(Nc1ncc2c(OC3CCNCC3)ncc([C@H]3CC[C@H](O)CC3)c2n1)c1ccncc1 (stereo partly drawn) [Compound 202]
12 | ≤ 0.1 µM | ≤ 0.1 µM | + (a ratio of >2.0 and <10) | CCCC(C)Nc1ncc2c(OC3CCNCC3)ncc([C@H]3CC[C@H](O)CC3)c2n1 (stereo partly drawn) [Compound 203]
13 | 0.1 to 1 µM | ≤ 0.1 µM | ++ (a ratio of between 10 and 100) | CCC[C@@H](C)Nc1ncc2c(OC3CCNCC3)ncc([C@H]3CC[C@@H](O)CC3)c2n1 [Compound 204]
14 | ≤ 0.1 µM | ≤ 0.1 µM | ++ (a ratio of between 10 and 100) | O[C@H]1CC[C@H](c2cnc(OC3CCNCC3)c3cnc(Nc4cccc(Cl)c4)nc32)CC1 [Compound 205]
15 | ≤ 0.1 µM | ≤ 0.1 µM | + (a ratio of >2.0 and <10) | O[C@H]1CC[C@H](c2cnc(OC3CCNCC3)c3cnc(Nc4ccc(Cl)cc4)nc32)CC1 [Compound 206]
16 | 0.1 to 1 µM | ≤ 0.1 µM | ++ (a ratio of between 10 and 100) | CCc1cccc(Nc2ncc3c(OC4CCNCC4)ncc([C@H]4CC[C@H](O)CC4)c3n2)c1 [Compound 207]
17 | 0.1 to 1 µM | ≤ 0.1 µM | +++ (a ratio of >100) | CCC[C@@H](C)Nc1ncc2c(OC3CCN(C)CC3)ncc([C@H]3CC[C@H](O)CC3)c2n1 [Compound 208]
18 | 0.1 to 1 µM | 0.1 to 1 µM | NS (a ratio of ≤2.0) | Cc1ccc(Cl)cc1Nc1ncc2c(OC3CCNCC3)ncc([C@H]3CC[C@H](O)CC3)c2n1 [Compound 209]
19 | ≤ 0.1 µM | ≤ 0.1 µM | + (a ratio of >2.0 and <10) | O[C@H]1CC[C@H](c2cnc(OC3CCNCC3)c3cnc(Nc4ccccc4)nc32)CC1 [Compound 210]
20 | 0.1 to 1 µM | ≤ 0.1 µM | ++ (a ratio of between 10 and 100) | O[C@H]1CC[C@H](c2cnc(OC3CCNCC3)c3cnc(NC4CCOCC4)nc32)CC1 [Compound 211]
21 | 0.1 to 1 µM | ≤ 0.1 µM | ++ (a ratio of between 10 and 100) | CC(C)CNc1ncc2c(OC3CCNCC3)ncc([C@H]3CC[C@H](O)CC3)c2n1 [Compound 212]
22 | 1 to 10 µM | ≤ 0.1 µM | ++ (a ratio of between 10 and 100) | O[C@H]1CC[C@H](c2cnc(OC3CCNCC3)c3cnc(N[C@@H]4CCOC4)nc32)CC1 [Compound 213]
23 | 1 to 10 µM | ≤ 0.1 µM | ++ (a ratio of between 10 and 100) | CCCC(C)Nc1ncc2c(O[C@@H]3CCCN(C)C3)ncc([C@H]3CC[C@H](O)CC3)c2n1 (stereo partly drawn) [Compound 214]
24 | 1 to 10 µM | 0.1 to 1 µM | ++ (a ratio of between 10 and 100) | CCOc1ncc(C2CCN(C)CC2)c2nc(N[C@@H](C)CC)ncc12 [Compound 215]
25 | 1 to 10 µM | 0.1 to 1 µM | ++ (a ratio of between 10 and 100) | O[C@H]1CC[C@H](c2cnc(OC3CCNCC3)c3cnc(N[C@H]4CCCOC4)nc32)CC1 [Compound 216]
26 | 1 to 10 µM | ≤ 0.1 µM | +++ (a ratio of >100) | CC[C@H](C)Nc1ncc2c(NC3CCOCC3)ncc([C@H]3CC[C@H](O)CC3)c2n1 [Compound 217]
27 | 1 to 10 µM | 0.1 to 1 µM | + (a ratio of >2.0 and <10) | C[C@@H](Nc1ncc2c(OC3CCNCC3)ncc([C@H]3CC[C@H](O)CC3)c2n1)c1ccccc1 [Compound 218]
